Source: patent publication US9040249B2, “Pan-kinase activation and evaluation of signaling pathways” (Beckman Coulter, Inc., priority 2008, dated 2015)
Several values for one entry are separate records, joined by “and”; a condition that tells them apart may be missing. Equal values may be shown once. Entries after “also recorded” stand apart in the source; their conditions may differ.

Columns and labels:
ribosomal S6 protein [1] = assay: LPS activation of ribosomal S6 protein in whole blood monocytes, flow cytometry (P-S6); assay type: cell-based, human
Experimental: (§1) 100 μl of blood was inserted into the bottom of 12×75 mm tubes. Blood was removed from the side of tube with cotton swab to eliminate potential contamination of the sample with unfixed cells. 100 ng lipopolysaccharide (LPS) was added to activation tubes (or equal volume of phosphate buffered saline (PBS) to control tubes) and the tubes were placed in 37° C. water bath.
(§2) After various incubation times (e.g. 1 minute to 60 minutes), the first tube was removed from the incubator and 65 μl 10% formaldehyde was added into tube. The tubes were mixed and placed in a rack and incubated at room temperature. After exactly a 10 minute incubation with formaldehyde, 1 ml Lyse/Permeabilization Buffer ([…] TRITON X-100 10% stock solution to 500 ml with PBS. 0.1165% TRITON X-100 solution at room temperature in the dark and pre-heated to 37° C. immediately prior to use.) was added to each tube, vortexed vigorously and returned to the rack. The tubes were incubated at room temperature for 15 minutes.
(§3) 2 ml cold Wash Buffer (PBS (w/o Ca++/Mg++) with 4% FBS, sterile filtered (0.22 um filter)) (4° C.) was added to each tube. All tubes were centrifuged at 500×g for 4 minutes. Tubes were removed from the centrifuge and supernate fluid was aspirated. 1 ml of cold (4° C.) 50% methanol was added to each tube and vortexed. All tubes were then incubated on ice for 10 minutes.
(§4) The tubes were then centrifuged at 500×g for 4 minutes and the supernate fluid was aspirated. 2 ml cold Wash Buffer (4° C.) was added to each tube. All tubes were centrifuged at 500×g for 4 minutes. Tubes were removed from the centrifuge and supernate fluid was aspirated.
(§5) Antibodies and cold Wash Buffer were added to a final volume of 100 μl and incubated at room temperature for 30 minutes. 2 ml cold Wash buffer was added, mixed and centrifuged. Cells were resuspended in 1 ml Wash Buffer, vortexed and analyzed on the flow cytometer.
(§6) In this study, a simultaneous measurement of four different signaling phospho-epitopes, which include P-ERK, P-p38 MAP Kinase, P-SAPK (Stress-Activated Protein Kinase), and P-S6 ribosomal protein (a measurement of new polypeptide synthesis), was conducted. This assay employed a measurement of the time course of LPS activation, in both “naive” whole blood, and whole blood samples previously exposed to LPS activation (“re-activated”). This assay also employed the fixation and permeabilization approach described above to measure both cell surface (CD14 to identify monocytes) and cytoplasmic or nuclear localized phospho-epitopes (P-ERK, P-p38, P-SAPK, and P-S6). This assay also employed an internal negative control to analyzing the data, relying on populations, rather than isotype controls, and measuring changes in MFI (mean fluorescence intensity) rather than percent positive.

SAPK/JNK = assay: LPS activation of MAPK signaling in whole blood monocytes, flow cytometry (P-SAPK/JNK); assay type: cell-based, human
Experimental: as §1, §2, §3, §4, §5, §6

ERK [2] = conditions: cited from earlier work
p38 MAP Kinase = assay: LPS activation of MAPK signaling in whole blood monocytes, flow cytometry (P-p38); assay type: cell-based, human
Experimental: as §1, §2, §3, §4, §5, §6

ERK [3] = assay: LPS activation of MAPK signaling in whole blood monocytes, flow cytometry (P-ERK); assay type: cell-based, human
Experimental: as §1, §2, §3, §4, §5, §6

ribosomal S6 protein [4] = assay: Inhibition of S6 activation by LPS with ERK and PI3K inhibitors; assay type: cell-based, human
Experimental: as §1, §2
2 ml cold Wash Buffer (PBS (w/o Ca++/Mg++) with 4% FBS, sterile filtered (0.22 um filter)) (4° C.) was added to each tube. All tubes were centrifuged at 500×g for 4 minutes. […]
Antibodies and cold Wash Buffer were added to a final volume of 100 μl and incubated at room temperature for 30 minutes. […] Cells were resuspended in 1 ml Wash Buffer, vortexed and analyzed on the flow cytometer. […]

[5] = normal whole blood, LPS 10 minutes at 37° C.
[6] = re-stimulation after 60 minutes, up to 2 hours
[7] = up to 120 minutes post stimulation
[8] = previously LPS-stimulated, 0 time of re-exposure
[9] = normal samples not previously exposed to LPS

Compound: lipopolysaccharide [LPS]
- peak activation of S6 relative to other pathway proteins (ribosomal S6 protein [1]; LPS stimulated monocytes): later than other MAPK pathway proteins
- time of P-S6 peak after LPS stimulation (ribosomal S6 protein [1]; normal individuals, primary stimulation): 15 to 30 min and 15 to 60 min
- persistence of P-S6 levels following LPS stimulation (ribosomal S6 protein [1]; primary stimulation): > 120 min
- MFI of the P-S6 population following LPS re-stimulation (ribosomal S6 protein [1]; re-stimulation): little change in the MFI
- JNK pathway activity after 60 minutes of LPS activation (SAPK/JNK; 60 minutes): decreased, but do not return to baseline
- time of P-SAPK peak after initial LPS stimulation (SAPK/JNK; initial stimulation): 15 min
- activated JNK in CD14+ monocytes (SAPK/JNK; [5]): all CD14+ monocytes have activated p-38, JNK, and ERK
- JNK activity when additional LPS is added (SAPK/JNK; [6]): no additional increase in any MAPK activity
- P-SAPK levels after initial LPS stimulation (SAPK/JNK; [7]): do not return to basal levels
- P-SAPK positive monocytes (SAPK/JNK; [7]): 30-40%
- percent of monocytes expressing phospho-ERK after LPS treatment in vitro (ERK [2]; normal controls, 15 min after LPS addition, 35% without LPS): 58%
- increase in P-ERK monocytes following LPS addition in vitro (ERK [2]; presumably septic patients, 25% before LPS): less than 10%
- percentage of P-p38 positive monocytes (p38 MAP Kinase; 15 min after LPS re-exposure): 46%
- aggregate MFI of P-p38 (p38 MAP Kinase; 15 minutes after re-exposure to LPS): 5.5
- p38 pathway activity after 60 minutes of LPS activation (p38 MAP Kinase; 60 minutes): decreased, but do not return to baseline
- monocytes retaining the same P-p38 MFI as in the 15 min primary response (p38 MAP Kinase; 120 min after primary LPS stimulation): Roughly 50%
- monocyte population showing significant increase in P-p38 MFI (p38 MAP Kinase; after primary LPS stimulation): about 100%
- levels of P-p38 after primary LPS stimulation (p38 MAP Kinase; even after periods of 120 min): do not return to basal levels
- activated p38 in CD14+ monocytes (p38 MAP Kinase; [5]): all CD14+ monocytes have activated p-38, JNK, and ERK
- aggregate MFI of P-p38 (p38 MAP Kinase; [8]): 5.0
- percentage of P-p38 positive monocytes (p38 MAP Kinase; [8]): 40%
- time to maximal P-p38 MFI after LPS stimulation (p38 MAP Kinase; primary LPS stimulation): 15 min
- P-p38 MFI peak time after restimulation with LPS (p38 MAP Kinase; re-stimulation): 15 to 20 min
- p38 activity when additional LPS is added (p38 MAP Kinase; [6]): no additional increase in any MAPK activity
- ERK pathway activity after 60 minutes of LPS activation (ERK [3]; 60 minutes): decreased, but do not return to baseline
- early P-ERK peak, time after LPS addition (ERK [3]; [9]): 1 to 4 min
- second P-ERK peak, time after LPS stimulation (ERK [3]; [9]): 10 to 15 min
- activated ERK in CD14+ monocytes (ERK [3]; [5]): all CD14+ monocytes have activated p-38, JNK, and ERK
- ERK activity when additional LPS is added (ERK [3]; [6]): no additional increase in any MAPK activity
- ERK activation six minutes after LPS activation (ERK [3]; six minutes, 37° C.): initial ERK activation declines
- MFI of P-ERK upon re-exposure to LPS (ERK [3]; up to 90 minutes after LPS re-stimulation, versus 0 time control): does not change significantly above the 0 time control
- earliest ERK activation, time following LPS stimulation (ERK [3]; whole blood monocytes, 37° C., before JNK or p38 activation): 2 min

Compound: N#CC(=C(/N)Sc1ccccc1N)/C(C#N)=C(\N)Sc1ccccc1N [U0126]
- inhibition of S6 activation by LPS (ribosomal S6 protein [4]; ERK inhibitor U0126 and PI3K inhibitor Ly294002 both present): inhibition of phosphorylation was seen; also recorded: Complete inhibition
- inhibition of S6 activation by LPS (ribosomal S6 protein [4]; inhibitor alone): Only inhibition of both pathways leads to complete inhibition
